Here are results for 11 compounds from US20150297562A1, “ANALGESIC” (NIPPON ZOKI PHARMACEUTICAL CO., LTD., priority 2012, published 2015).

In this assay the test system is MIA-induced OA rats. The assay can be described thus: Analgesic action to MIA-induced osteoarthritis model rats (von Frey test, 50% reaction threshold to mechanical stimulus). The assay is classed as in vivo, rat (male Wistar). The following applies: Rattus norvegicus, ip, single intraperitoneal dose of 200 μg/kg, von Frey test after 1 hour from administration, normal threshold value 15, read-out: Recovery rate of 50% reaction threshold value (%). The protocol: Pharmacological Test I: Analgesic Action to Osteoarthritis Model Rats
There were conducted the following experiments for testing the analgesic action of the analgesic of the present invention using the osteoarthritis (OA) rats induced by sodium monoiodoacetate (MIA) which were model animals for OA.
(1) Preparation of MIA-Induced OA Rats
A 50% reaction threshold value to the mechanical stimulus of male Wistar rats of six weeks age was measured (the measuring method will be mentioned later) and a normal control group was selected. MIA prepared by saline was administered in a single dose of 300 μg/50 μL into right knee joint of the rats except the normal control group while 50 μL of saline was administered into left knee joint whereupon the MIA-induced OA rats were prepared. To the normal control group, 50 μL of saline was administered into the joints of both knees.
With regard to the male Wistar rats of six weeks age used as experimental animals except the normal control group, their 50% reaction threshold values to the mechanical stimulus (the measuring method will be mentioned later) and body weights were measured after […] from the administration of MIA mentioned in (1) and then 3 groups each comprising six rats [a normal control group, an onset control group and a test drug-administered group] were organized.
(3) Administration of Test Drug
A test drug solution (100 μg/mL) using the compound according to the analgesic of the present invention as a test drug was prepared using a phosphate buffered saline (PBS) containing 0.1 vol % of dimethyl sulfoxide (DMSO).
Immediately after the grouping (after 14 days from the administration of MIA), a test drug solution was intraperitoneally administered in a single dose of 200 μg/kg to a test drug-administered group. Meanwhile, to the normal control group and the onset control group, PBS containing 0.1 vol % of DMSO was intraperitoneally administered in a single dose.
(4) Result of Measurement of the 50% Reaction Threshold Values to the Mechanical Stimulus (Von Frey Test)
The three groups of rats of the above (2) were placed in a transparent acrylic cage with a wire-meshed floor and habituated for about three minutes and the 50% reaction threshold values to the mechanical stimulus were measured after 1 hour from the administration of a test drug. The measurement was conducted using von Frey filaments (manufactured by North Coast Medical Inc.) in accordance with the methods of Chaplan, et al. (Journal of Neuroscience Methods, vol. 53, no. 1, pages 55 to 63, 1994) and Dixon, et al. (Annual Review of Pharmacology and Toxicology, vol. 20, pages 441 to 462, 1980). […] The case where the rat escaped at the instance of removing the filament was also called positive. When the positive reaction was noted, stimulus was conducted similarly using a filament of one rank weaker while, when no reaction was noted, stimulus was conducted similarly using a filament of one rank stronger and the point when the reaction changed from negative to positive or from positive to negative was called the first two reactions. After that, stimulus was conducted for continuous four times by the same up-down method. A 50% reaction threshold value to the mechanical stimulus was measured using the reaction to the six stimuli in total and then (mean value)±(standard error) for each group was calculated. Incidentally, when stimulus reached by that of 15.0 g without positive reaction or, when positive reaction continued to 0.4 g, then 15.0 g or 0.25 g was adopted as each threshold value, respectively.
With regard to the 50% reaction threshold value after 1 hour from administration of a test drug, a recovery rate (%) of the 50% reaction threshold value was calculated by the following expression in which 15 was adopted as the normal threshold value. […]

In the case of `CCCCCCC/C=C/C(=O)SCCN(CC)CC` [Compound 56, (E)-S-2-(diethylamino)ethyl dec-2-enethioate], the inhibition in vivo at 0.2 mg/kg is 21.8%.

With `CCCCCCC/C=C/C(=O)N(CCN(C)C)CCN(C)C` [Compound 45, (E)-N,N-bis(2-(dimethylamino)ethyl) dec-2-enamide], the inhibition in vivo at 0.2 mg/kg turned out to be 10.2%. To `CCCCCCC/C=C/C(=O)NCCN(CC)CC` [Compound 37 (Citrate), (E)-N-2-(diethylamino)ethyl dec-2-enamide] belongs 45.1%; to `CCCCCCC/C=C/C(=O)SCCCCCC` [Compound 50, (E)-S-hexyl dec-2-enethioate], 15.6%; to `CCCCCCC/C=C/C(=O)N(CC)CCN(CC)CC` [Compound 44 (Citrate), (E)-N-(2-(diethylamino)ethyl)-N-ethyl dec-2-enamide], 21.7%. Under `CCCCCCC/C=C/C(=O)NCC(C)C` [Compound 18, (E)-N-isobutyl dec-2-enamide] stands 49%; under `CCCCCCC/C=C/C(=O)OCCOC` [Compound 9, (E)-2-methoxyethyl dec-2-enoate], 13%. Under `CCCCCCC/C=C/C(=O)OCCN(C)C` [Compound 1, (E)-2-(dimethylamino)ethyl dec-2-enoate] stands 25.5%.

As to `CCCCCCC/C=C/C(=O)NC1CCCCC1` [Compound 27, (E)-N-cyclohexyl dec-2-enamide], the inhibition in vivo at 0.2 mg/kg was 5.8%. Under `CCCCCCC/C=C/C(=O)NCCCCCC` [Compound 22, (E)-N-hexyl dec-2-enamide] stands 44.3%; under `CCCCCCC/C=C/C(=O)OCCSC(C)C` [Compound 8, (E)-2-(isopropylthio)ethyl dec-2-enoate], 28.9%.
